Key:
CYP2C9 = biological target: T1, CYP2C9 (Homo sapiens, UniProt P11712); assay: CYP inhibition; assay type: in vitro ADME; details: expressed in E. coli membranes, substrate diclofenac, LC-MS-MS; read-out: Mean pIC50 CYP2C9 (converted)
T1 construct: made in house; host or cells: E. coli (membranes)
Method: (§1) The five major human hepatic Cytochrome P450 isoforms, 1A2, 2C9, 2C19, 2D6 and 3A4 were heterologously expressed in E. coli membranes. Each of the five CYPs were incubated with a cocktail of specific substrates; phenacetin, diclofenac, 5-mephenyloin, bufuralol and midazolam, which are predominantly metabolised by CYP 1A2, 2C9, 2C19, 2D6 and 3A4 respectively plus the test compound.
(§2) The substrates were incubated, at concentrations equivalent to their respective Km values, and LC-MS-MS (MRM mode) was used in order to follow the formation of their specific metabolites. The ability of the test compound to inhibit the CYP isoforms was determined by following any decrease in the amount of the specific metabolites formed at six different inhibitor concentrations.
(§3) The rates of reaction were calculated by measuring MS/MS area units and data analysis was performed by linearising the data using a pseudo Hill plot. The IC50 ie the concentration of the test compound that decreases the amount of metabolite formed by 50% was determined.

CYP2C19 = biological target: T2, CYP2C19 (Homo sapiens, UniProt P33261); assay: CYP inhibition; assay type: in vitro ADME; details: expressed in E. coli membranes, substrate 5-mephenyloin, LC-MS-MS; read-out: Mean pIC50 CYP2C19 (converted)
T2 construct: made in house; host or cells: E. coli (membranes)
T2 sequence (P33261 whole entry): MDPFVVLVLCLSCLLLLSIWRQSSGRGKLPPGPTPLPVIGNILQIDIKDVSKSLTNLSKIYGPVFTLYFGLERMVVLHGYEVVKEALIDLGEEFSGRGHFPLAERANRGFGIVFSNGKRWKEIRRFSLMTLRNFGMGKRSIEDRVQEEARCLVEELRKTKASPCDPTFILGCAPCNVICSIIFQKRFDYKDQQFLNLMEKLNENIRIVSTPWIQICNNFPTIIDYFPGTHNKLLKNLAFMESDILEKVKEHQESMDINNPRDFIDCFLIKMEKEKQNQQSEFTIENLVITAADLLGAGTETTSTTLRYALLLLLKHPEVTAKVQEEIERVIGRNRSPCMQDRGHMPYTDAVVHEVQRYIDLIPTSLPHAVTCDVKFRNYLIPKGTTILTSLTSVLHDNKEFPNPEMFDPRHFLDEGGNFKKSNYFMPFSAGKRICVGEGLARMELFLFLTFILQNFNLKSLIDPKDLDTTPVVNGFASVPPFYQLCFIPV
Method: as §1, §2, §3

CYP2D6 = biological target: T3, CYP2D6 (Homo sapiens, UniProt P10635); assay: CYP inhibition; assay type: in vitro ADME; details: expressed in E. coli membranes, substrate bufuralol, LC-MS-MS; read-out: Mean pIC50 CYP2D6 (converted)
T3 construct: made in house; host or cells: E. coli (membranes)
T3 sequence (P10635 whole entry): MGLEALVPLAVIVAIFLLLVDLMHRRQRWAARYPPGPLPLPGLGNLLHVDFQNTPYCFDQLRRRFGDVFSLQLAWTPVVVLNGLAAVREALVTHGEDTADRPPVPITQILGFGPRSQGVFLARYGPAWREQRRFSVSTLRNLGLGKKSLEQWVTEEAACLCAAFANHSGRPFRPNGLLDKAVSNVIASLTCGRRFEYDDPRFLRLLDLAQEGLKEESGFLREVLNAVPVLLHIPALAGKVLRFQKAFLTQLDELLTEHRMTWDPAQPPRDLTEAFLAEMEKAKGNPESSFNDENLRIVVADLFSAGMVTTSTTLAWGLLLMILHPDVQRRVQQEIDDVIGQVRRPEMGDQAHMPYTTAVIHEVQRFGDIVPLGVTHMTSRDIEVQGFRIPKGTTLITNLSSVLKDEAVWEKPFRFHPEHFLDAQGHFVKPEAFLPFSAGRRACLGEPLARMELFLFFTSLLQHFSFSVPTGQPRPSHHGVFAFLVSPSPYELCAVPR
Method: as §1, §2, §3

CYP3A4 = biological target: T4, CYP3A4 (Homo sapiens, UniProt P08684); assay: CYP inhibition; assay type: in vitro ADME; details: expressed in E. coli membranes, substrate midazolam, LC-MS-MS; read-out: Mean pIC50 CYP3A4 (converted)
T4 construct: made in house; host or cells: E. coli (membranes)
T4 sequence (P08684 whole entry): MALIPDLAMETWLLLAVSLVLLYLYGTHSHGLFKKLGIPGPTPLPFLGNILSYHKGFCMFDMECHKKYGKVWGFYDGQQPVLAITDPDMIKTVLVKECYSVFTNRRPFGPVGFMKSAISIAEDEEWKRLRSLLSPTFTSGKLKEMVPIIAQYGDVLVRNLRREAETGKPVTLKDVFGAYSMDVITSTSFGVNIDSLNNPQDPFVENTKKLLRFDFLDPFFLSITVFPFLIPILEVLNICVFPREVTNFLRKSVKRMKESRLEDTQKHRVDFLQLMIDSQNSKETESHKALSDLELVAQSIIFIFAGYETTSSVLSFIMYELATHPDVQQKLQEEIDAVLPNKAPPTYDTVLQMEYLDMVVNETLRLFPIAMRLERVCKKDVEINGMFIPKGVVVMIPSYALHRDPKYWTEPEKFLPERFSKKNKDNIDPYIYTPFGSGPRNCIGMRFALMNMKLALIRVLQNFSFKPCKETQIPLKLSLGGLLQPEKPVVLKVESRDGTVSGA
Method: as §1, §2, §3

CYP1A2 = biological target: T5, CYP1A2 (Homo sapiens, UniProt P05177); assay: CYP inhibition; assay type: in vitro ADME; details: expressed in E. coli membranes, substrate phenacetin, LC-MS-MS; read-out: Mean pIC50 CYP1A2 (converted)
T5 construct: made in house; host or cells: E. coli (membranes)
T5 sequence (P05177 1-516): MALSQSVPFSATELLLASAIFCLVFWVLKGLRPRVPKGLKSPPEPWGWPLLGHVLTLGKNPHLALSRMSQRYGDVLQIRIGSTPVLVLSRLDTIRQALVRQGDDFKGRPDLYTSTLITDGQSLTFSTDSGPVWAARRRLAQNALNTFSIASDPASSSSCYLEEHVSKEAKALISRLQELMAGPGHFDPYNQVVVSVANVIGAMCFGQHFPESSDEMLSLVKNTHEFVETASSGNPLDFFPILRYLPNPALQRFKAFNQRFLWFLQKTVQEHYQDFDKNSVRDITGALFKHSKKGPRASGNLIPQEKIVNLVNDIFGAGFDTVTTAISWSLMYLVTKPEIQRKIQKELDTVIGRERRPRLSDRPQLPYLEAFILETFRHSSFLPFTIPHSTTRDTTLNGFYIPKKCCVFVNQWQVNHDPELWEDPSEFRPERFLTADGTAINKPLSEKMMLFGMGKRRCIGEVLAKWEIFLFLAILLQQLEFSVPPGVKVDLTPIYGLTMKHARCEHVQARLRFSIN
Method: as §1, §2, §3

human TLR7 = biological target: T6, human TLR7 (Homo sapiens, UniProt Q9NYK1); assay: Human TLR7 assay (SEAP reporter in HEK293 cells); assay type: cell-based; details: HEK293 cells expressing recombinant human TLR7, overnight incubation at 37° C., 0.1% DMSO; read-out: mean pEC50 (SEAP induction) (converted)
T6 construct: expressed in transfected cells; host or cells: HEK293 stably expressing pNiFty2-SEAP reporter; TLR7 in pUNO vector
T6 sequence (Q9NYK1 27-1049): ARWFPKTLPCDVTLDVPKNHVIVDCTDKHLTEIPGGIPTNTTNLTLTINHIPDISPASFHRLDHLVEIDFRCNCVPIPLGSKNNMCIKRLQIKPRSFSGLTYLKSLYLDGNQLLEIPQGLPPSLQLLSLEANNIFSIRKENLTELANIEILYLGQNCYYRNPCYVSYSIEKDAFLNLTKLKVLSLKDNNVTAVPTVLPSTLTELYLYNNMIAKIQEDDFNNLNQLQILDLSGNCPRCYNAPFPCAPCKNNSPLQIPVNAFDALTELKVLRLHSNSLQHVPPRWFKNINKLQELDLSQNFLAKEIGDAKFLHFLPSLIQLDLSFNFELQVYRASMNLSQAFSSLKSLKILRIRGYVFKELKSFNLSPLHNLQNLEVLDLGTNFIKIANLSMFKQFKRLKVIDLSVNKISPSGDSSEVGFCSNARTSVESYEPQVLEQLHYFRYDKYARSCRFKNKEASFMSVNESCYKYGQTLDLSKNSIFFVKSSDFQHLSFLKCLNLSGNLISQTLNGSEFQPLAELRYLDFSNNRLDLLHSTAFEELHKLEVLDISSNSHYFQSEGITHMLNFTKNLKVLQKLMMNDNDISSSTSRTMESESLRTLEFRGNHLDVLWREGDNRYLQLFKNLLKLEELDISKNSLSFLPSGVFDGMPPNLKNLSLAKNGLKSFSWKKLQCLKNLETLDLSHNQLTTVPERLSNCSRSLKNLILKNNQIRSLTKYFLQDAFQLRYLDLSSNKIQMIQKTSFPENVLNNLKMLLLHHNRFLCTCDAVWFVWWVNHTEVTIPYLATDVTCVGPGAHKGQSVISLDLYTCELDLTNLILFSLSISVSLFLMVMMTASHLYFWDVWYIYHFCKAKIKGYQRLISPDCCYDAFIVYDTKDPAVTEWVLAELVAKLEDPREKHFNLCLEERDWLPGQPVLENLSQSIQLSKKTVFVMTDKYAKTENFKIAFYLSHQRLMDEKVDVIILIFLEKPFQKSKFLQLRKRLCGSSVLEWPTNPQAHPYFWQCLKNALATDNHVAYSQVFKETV
Description: Recombinant human TLR7 was stably expressed in a HEK293 cell line already stably expressing the pNiFty2-SEAP reporter plasmid; integration of the reporter gene was maintained by selection with the antibiotic zeocin. The most common variant sequence of human TLR7 (represented by the EMBL sequence AF240467) was cloned into the mammalian cell expression vector pUNO and transfected into this reporter cell-line. Transfectants with stable expression were selected using the antibiotic blasticidin. In this reporter cell-line, expression of secreted alkaline phosphatase (SEAP) is controlled by an NFkB/ELAM-1 composite promoter comprising five NFkB sites combined with the proximal ELAM-1 promoter. TLR signaling leads to the translocation of NFkB and activation of the promoter results in expression of the SEAP gene. TLR7-specific activation was assessed by determining the level of SEAP produced following overnight incubation of the cells at 37° C. with the standard compound in the presence of 0.1% (v/v) dimethylsulfoxide (DMSO). […] Human Skin Cytokine Production

Human plasma stability = assay type: in vitro ADME; details: 37° C.
Method: To determine the half life of the test compound in human plasma, incubations were performed at 37° C. in a shaking water bath. Compound (5 μl of 100 μM stock in MeCN) was spiked into 0.495 mL plasma to give final incubation concentration of 1 μM. Aliquots (50 μl) were withdrawn at various time points (typically 0, 20 & 40 sec, 1, 2, 3, 5 & 10 mins) and quenched into MeCN ([…]) followed by analysis for parent compound by LC-MS-MS (MRM mode). The half life was calculated from the decline of test compound peak area over time. • Example 1 (Compound (I)) gave a half life of 0.6 minutes (n=1). • Comparative Example 1 gave a half life of 0.2 minutes (n=1).

[1] = test system: interleukin-13 (IL-13) production in human skin biopsies; assay: Human skin cytokine production (PHA-induced IL-13 in skin biopsies); assay type: cell-based; details: PHA-stimulated human skin biopsies, 24 hours
Method: Normal human skin biopsies were obtained, with informed consent, from healthy patients undergoing surgical cosmetic procedures. 3 mm full thickness skin biopsies were taken using a biopsy punch. A hole was cut in a Transwell filter (pore size 0.4 μm) using a punch and the skin biopsy inserted in the hole. The filter containing the biopsy was placed in the well of a 24-well culture plate containing 1.25 ml of culture medium (RPMI containing 1% heat-inactivated human serum) with the epidermis facing upwards at the liquid-air interface. Culture plates containing the biopsies were incubated at 37° C., in an atmosphere of 5% CO2 in air, for 24 hours. Biopsies were cultured in the absence or presence of phytohaemagglutinin (PHA) (1 mg/ml) added to the culture medium to induce a cytokine response in the tissue.

[2] = Maximal solubility in phosphate citrate buffer pH 3.0; assay type: physicochemical
[3] = compound applied topically at 1/10 max. solubility
[4] = compound applied topically at max. solubility

T1 sequence (P11712 whole entry): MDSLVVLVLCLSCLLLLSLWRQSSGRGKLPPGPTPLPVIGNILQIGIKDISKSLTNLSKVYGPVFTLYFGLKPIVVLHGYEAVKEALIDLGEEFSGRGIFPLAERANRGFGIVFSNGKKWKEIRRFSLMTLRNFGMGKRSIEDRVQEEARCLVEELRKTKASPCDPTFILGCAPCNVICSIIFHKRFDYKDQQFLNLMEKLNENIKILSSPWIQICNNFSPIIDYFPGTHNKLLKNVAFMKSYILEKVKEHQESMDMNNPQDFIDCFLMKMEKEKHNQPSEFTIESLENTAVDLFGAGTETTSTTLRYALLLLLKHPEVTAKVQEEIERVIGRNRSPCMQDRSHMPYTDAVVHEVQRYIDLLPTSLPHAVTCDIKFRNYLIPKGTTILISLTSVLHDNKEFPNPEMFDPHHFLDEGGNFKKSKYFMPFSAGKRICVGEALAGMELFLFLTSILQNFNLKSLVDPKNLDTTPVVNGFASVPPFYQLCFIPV

Work on CCCCOc1nc(N)c2[nH]c(=O)n(CCCN(CCCN3CCCCC3)Cc3cccc(CC(=O)OC)c3)c2n1 [Comparative Example 1, Methyl [3-({[3-(6-amino-2-butoxy-8-oxo-7,8-dihydro-9H-purin-9-yl)propyl][3-(piperidin-1-yl)propyl]amino}methyl)phenyl]acetate, reference compound] yielded an IC50 (CYP2C9) greater than 29.5 µM, an IC50 (CYP2C19) greater than 30.2 µM and an IC50 (CYP2D6) of 13.5 µM. It also gave an IC50 (CYP3A4) of 0.0132 µM, an IC50 (CYP1A2) greater than 30.2 µM and an EC50 (human TLR7) of 0.158 µM. The half-life at 1 μM (Human plasma stability) was 12 s.
Molecule CCCCOc1nc(N)c2[nH]c(=O)n(CCCN(CCCN3CCCCC3)Cc3ccc(CC(=O)OC)cc3)c2n1 [Example 1, Methyl [4-({[3-(6-amino-2-butoxy-8-oxo-7,8-dihydro-9H-purin-9-yl)propyl][3-(piperidin-1-yl)propyl]amino}methyl)phenyl]acetate] has an IC50 (CYP2C9) greater than 3.02 µM, an IC50 (CYP2C19) greater than 3.02 µM and an IC50 (CYP2D6) greater than 3.02 µM. It also gave an IC50 (CYP3A4) of 0.468 µM, an IC50 (CYP1A2) greater than 3.02 µM and an EC50 (human TLR7) of 0.251 µM. The “% Inhibition of response” value [1, 3] was 55%, the “IL-13 (pg/ml) Mean ± SEM” value [1, 3] was 4.8 ± 0.8 pg/mL and the “% Inhibition of response” value [1, 4] was 87%. The “IL-13 (pg/ml) Mean ± SEM” value [1, 4] was 1.9 ± 0.8 pg/mL, the half-life at 1 μM (Human plasma stability) was 36 s and the “maximal solubility in phosphate citrate buffer pH 3.0” value [2] was 4.1-4.4 % w/w.
